# Where two headings read alike, the source gives them in different places.
# How the values were obtained:
# [1] = tested on: NRK-52E, normal rat kidney cells; settings: 24 h
# Description: In order to assess the cytotoxicity of the drugs to normal cells, we used 96 well plates plated at a density of 5000 cells per well (except for the FDC-P1 which were plated at 12,000 cells per well) with normal cell lines (ATCC, Table 1) maintained as per the directions of the ATCC: AML-12, normal mouse liver cells; NRK-52E, normal rat kidney cells; L8, normal rat skeletal muscle cells; FDC-P1, normal mouse myelogeous stem cells; and H9c2 (2-1), normal rat cardiac muscle cells. The cells in each plate were permitted to settle overnight before adding the test drug.
# To each well (100 μl medium) 10 μl of drug in media was added at varying concentrations (1×10-10-0.01 mg/ml final concentration) and further incubated overnight at 37° C. with 5% CO2. After 24 h the following assays were performed. All experiments were repeated at least 3 times and were assayed in duplicate.
# MTS assay (CellTiter 96 aqueous) was performed according to the manufacturer's (Promega) directions (for all cell types). Cell viability (mitochondrial activity) is determined via enzymatic conversion of the formazan substrate.
# [2] = tested on: L8, normal rat skeletal muscle cells; settings: 24 h
# [3] = tested on: H-MEC-1; assay: Inhibition of cells growth by colorimetric assay (SRB), H-MEC-1; format: cell-based; settings: H-MEC-1, 48 hours exposure, SRB; for CC50: read-out: LC50
# Source text: (§1) The finality of these assays is to interrupt the growth of a “in vitro” tumor cell culture by means of a continued exhibition of the cells to the sample to be testing.
# (§2) A colorimetric type of assay, using sulphorhodamine B (SRB) reaction has been adapted for a quantitative measurement of cell growth and viability [following the technique described by Philip Skehan, et al. (1990), New colorimetric cytotoxicity assay for anticancer drug screening, J. Natl. Cancer Inst., 82:1107-1112]
# (§3) This form of the assay employs 96 well cell culture microplates of 9 mm diameter (Faircloth, 1988; Mosmann, 1983). Most of the cell lines are obtained from American Type Culture Collection (ATCC) derived from different human cancer types.
# (§4) Cells are maintained in RPMI 1640 10% FBS, supplemented with 0.1 g/l penicillin and 0.1 g/l streptomycin sulphate and then incubated at 37° C., 5% CO2 and 98% humidity. For the experiments, cells were harvested from subconfluent cultures using trypsin and resuspended in fresh medium before plating.
# (§5) Cells are seeded in 96 well microtiter plates, at 5×10^3 cells per well in aliquots of 195 μl medium, and they are allowed to attach to the plate surface by growing in drug free medium for 18 hours. Afterward, samples are added in aliquots of 5 μl in a ranging from 10 to 10^−8 μg/ml, dissolved in DMSO/EtOH/PBS (0.5:0.5:99). After 48 hours exposure, the antitumor effect are measured by the SRB methodology: cells are fixed by adding 50 μl of cold 50% (wt/vol) trichloroacetic acid (TCA) and incubating for 60 minutes at 4° C. Plates are washed with deionized water and dried. One hundred μl of SRB solution (0.4% wt/vol in 1% acetic acid) is added to each microtiter well and incubated for 10 minutes at room temperature. Unbound SRB is removed by washing with 1% acetic acid. Plates are air dried and bound stain is solubilized with Tris buffer. Optical densities are read on a automated spectrophotometric plate reader at a single wavelength of 490 nm.
# (§6) The values for mean+/− SD of data from triplicate wells are calculated. Some parameters for cellular responses can be calculated: GI=growth inhibition, TGI=total growth inhibition (cytostatic effect) and LC=cell killing (cytotoxic effect).
# [4] = tested on: AML-12, normal mouse liver cells; settings: 24 h
# [5] = tested on: A549; assay: cells; format: cell-based; settings: for GI50: read-out: GI50
# Source text: as §1, §2, §3, §4, §5, §6
# [6] = tested on: MEL-28; assay: cells; format: cell-based
# Source text: as §1, §2, §3, §4, §5, §6
# [7] = tested on: IGROV; assay: cells; format: cell-based; settings: for GI50 / TGI: 48 hours exposure, SRB; for CC50: read-out: LC50, 48 hours exposure, SRB
# Source text: as §1, §2, §3, §4, §5, §6
# [8] = tested on: LOVO-DOX; assay: cells; format: cell-based; settings: LOVO-DOX, 48 hours exposure, SRB; for CC50: read-out: LC50
# Source text: as §1, §2, §3, §4, §5, §6
# [9] = tested on: SK-BR3; assay: cells; format: cell-based; settings: SK-BR3, 48 hours exposure, SRB; for CC50: read-out: LC50
# Source text: as §1, §2, §3, §4, §5, §6
# [10] = tested on: LOVO; assay: cells; format: cell-based; settings: LOVO, 48 hours exposure, SRB; for CC50: read-out: LC50
# Source text: as §1, §2, §3, §4, §5, §6
# [11] = tested on: DU145; assay: cells; format: cell-based; settings: for CC50: read-out: LC50
# Source text: as §1, §2, §3, §4, §5, §6
# [12] = tested on: K562; assay: cells; format: cell-based
# Source text: as §1, §2, §3, §4, §5, §6
# [13] = tested on: IGROV-ET; assay: cells; format: cell-based; settings: IGROV-ET, 48 hours exposure, SRB; for CC50: read-out: LC50
# Source text: as §1, §2, §3, §4, §5, §6
# [14] = tested on: LNCAP; assay: cells; format: cell-based; settings: LNCAP, 48 hours exposure, SRB; for CC50: read-out: LC50
# Source text: as §1, §2, §3, §4, §5, §6
# [15] = tested on: HT29; assay: cells; format: cell-based
# Source text: as §1, §2, §3, §4, §5, §6
# [16] = tested on: PANC-1; assay: cells; format: cell-based; settings: PANC-1, 48 hours exposure, SRB; for CC50: read-out: LC50
# Source text: as §1, §2, §3, §4, §5, §6
# [17] = tested on: SK-OV3; assay: Inhibition of cells growth by colorimetric assay (SRB), SK-OV3; format: cell-based; settings: SK-OV3, 48 hours exposure, SRB; for CC50: read-out: LC50
# Source text: as §1, §2, §3, §4, §5, §6
# [18] = tested on: FDC-P1, normal mouse myelogeous stem cells; settings: 24 h
# [19] = tested on: MB231; assay: cells; format: cell-based; settings: Homo sapiens
# Source text: as §1, §2, §3, §4, §5, §6
# [20] = tested on: MCF; assay: cells; format: cell-based; settings: Homo sapiens
# Source text: as §1, §2, §3, §4, §5, §6
# [21] = tested on: SW-620; assay: cells; format: cell-based; settings: Homo sapiens
# Source text: as §1, §2, §3, §4, §5, §6
# [22] = tested on: A498; assay: cells; format: cell-based; settings: Homo sapiens
# Source text: as §1, §2, §3, §4, §5, §6
# [23] = read-out: LC50, A549, 48 hours exposure, SRB
# [24] = Homo sapiens, SK-MEL-28, 48 h, MEL-28, 48 hours exposure, SRB
# [25] = Homo sapiens, HT-29, 48 h, read-out: LC50, HT29, 48 hours exposure, SRB
# [26] = Homo sapiens, DU-145, 48 h, DU145, 48 hours exposure, SRB
# [27] = Homo sapiens, HT-29, 48 h, HT29, 48 hours exposure, SRB
structure (smiles),measurement,setting,value
COc1c(C)cc2c(c1O)[C@@H]1C3[C@@H]4SC[C@]5(C(=O)COC[C@@H](c6c7c(c(C)c(OC(C)=O)c64)OCO7)N3[C@@H](O)[C@H](C2)N1C)c1[nH]c2ccccc2c1CCN5C (some centres unmarked) [Compound 39],Kidney,[1],9.88E−05
same,Skeletal,[2],4.58E−07
same,GI50,[3],58.1 nM
same,TGI,[3],1.46E−06 Molar
same,CC50,[3],13000 nM
same,Liver,[4],1.14E−06
same,TGI,"[5]; A549, 48 hours exposure, SRB",8.74E−08 Molar
same,GI50,"[5]; A549, 48 hours exposure, SRB",46.7 nM
same,CC50,[5]; [23],2320 nM
same,GI50,[6]; [24],34.7 nM
same,IC (TGI),[6]; [24],69.1 nM
same,CC50,"[6]; Homo sapiens, SK-MEL-28, 48 h, read-out: LC50, MEL-28, 48 hours exposure, SRB",181 nM
same,GI50,[7],43 nM
same,TGI,[7],8.15E−08 Molar
same,CC50,[7],2320 nM
same,GI50,[8],234 nM
same,TGI,[8],9.94E−07 Molar
same,CC50,[8],13000 nM
same,GI50,[9],49.9 nM
same,TGI,[9],1.10E−07 Molar
same,CC50,[9],944 nM
same,GI50,[10],32.1 nM
same,TGI,[10],6.22E−08 Molar
same,CC50,[10],120 nM
same,GI50,"[11]; DU145, 48 hours exposure, SRB",55.9 nM
same,TGI,"[11]; DU145, 48 hours exposure, SRB",2.03E−06 Molar
same,CC50,"[11]; DU145, 48 hours exposure, SRB",13000 nM
same,CC50,"[12]; Homo sapiens, K562, 48 h, read-out: LC50, K562, 48 hours exposure, SRB",79.2 nM
same,GI50,"[12]; K562, 48 hours exposure, SRB",25.1 nM
same,TGI,"[12]; K562, 48 hours exposure, SRB",4.46E−08 Molar
same,GI50,[13],82.5 nM
same,TGI,[13],4.04E−06 Molar
same,CC50,[13],13000 nM
same,GI50,[14],20.5 nM
same,TGI,[14],4.41E−08 Molar
same,CC50,[14],94.7 nM
same,GI50,"[15]; HT29, 48 hours exposure, SRB",48.5 nM
same,TGI,"[15]; HT29, 48 hours exposure, SRB",1.73E−05 Molar
same,CC50,[15]; [25],13000 nM
same,GI50,[16],60.1 nM
same,TGI,[16],9.22E−07 Molar
same,CC50,[16],13000 nM
same,GI50,[17],62.4 nM
same,TGI,[17],3.19E−07 Molar
same,CC50,[17],13000 nM
same,Myelo,[18],4.10E−07
COc1c(C)cc2c(c1O)[C@@H]1C3[C@@H]4SC[C@]5(C(=O)COC[C@@H](c6c7c(c(C)c(OC(C)=O)c64)OCO7)N3[C@@H](O)[C@H](C2)N1C)c1[nH]c2ccccc2c1CCN5C (some centres unmarked) [Compound 40],Kidney,[1],2.95E−08
same,Skeletal,[2],2.11E−07
same,GI50,[3],2.45 nM
same,TGI,[3],5.31E−09 Molar
same,CC50,[3],11.5 nM
same,Liver,[4],3.86E−08
same,TGI,"[5]; A549, 48 hours exposure, SRB",4.11E−09 Molar
same,GI50,"[5]; A549, 48 hours exposure, SRB",2.41 nM
same,CC50,[5]; [23],7.02 nM
same,GI50,"[6]; MEL-28, 48 hours exposure, SRB",19.6 nM
same,TGI,"[6]; MEL-28, 48 hours exposure, SRB",4.70E−08 Molar
same,CC50,"[6]; read-out: LC50, MEL-28, 48 hours exposure, SRB",112 nM
same,GI50,[7],1.96 nM
same,TGI,[7],4.17E−09 Molar
same,CC50,[7],8.86 nM
same,GI50,[8],30.4 nM
same,TGI,[8],9.12E−08 Molar
same,CC50,[8],551 nM
same,GI50,[9],2.56 nM
same,TGI,[9],6.50E−09 Molar
same,CC50,[9],28 nM
same,GI50,[10],2.51 nM
same,TGI,[10],5.98E−09 Molar
same,CC50,[10],23.8 nM
same,GI50,"[11]; DU145, 48 hours exposure, SRB",2.35 nM
same,TGI,"[11]; DU145, 48 hours exposure, SRB",6.41E−09 Molar
same,CC50,"[11]; DU145, 48 hours exposure, SRB",2450 nM
same,GI50,"[12]; K562, 48 hours exposure, SRB",0.843 nM
same,TGI,"[12]; K562, 48 hours exposure, SRB",6.87E−09 Molar
same,CC50,"[12]; read-out: LC50, K562, 48 hours exposure, SRB",80 nM
same,GI50,[13],2.42 nM
same,TGI,[13],8.66E−09 Molar
same,CC50,[13],4800 nM
same,GI50,[14],1.02 nM
same,TGI,[14],2.48E−09 Molar
same,CC50,[14],5.88 nM
same,GI50,"[15]; HT29, 48 hours exposure, SRB",3.26 nM
same,TGI,"[15]; HT29, 48 hours exposure, SRB",1.06E−08 Molar
same,CC50,"[15]; read-out: LC50, HT29, 48 hours exposure, SRB",13000 nM
same,GI50,[16],2.82 nM
same,TGI,[16],7.17E−09 Molar
same,CC50,[16],128 nM
same,GI50,[17],2.9 nM
same,TGI,[17],6.28E−09 Molar
same,CC50,[17],13 nM
same,Myelo,[18],4.08E−08
COc1c(C)cc2c(c1O)[C@@H]1C3[C@@H]4SC[C@]5(NCCc6c5[nH]c5ccccc65)C(=O)COC[C@@H](c5c6c(c(C)c(OC(=O)C(F)(F)C(F)(F)C(F)(F)F)c54)OCO6)N3[C@@H](O)[C@H](C2)N1C (some centres unmarked) [Compound 62],GI50,"[5]; Homo sapiens, A549, 48 h, A549, 48 hours exposure, SRB",8.8 nM
same,IC (TGI),"[5]; Homo sapiens, A549, 48 h, A549, 48 hours exposure, SRB, read-out: TGI",33 nM
same,CC50,"[5]; Homo sapiens, A549, 48 h, read-out: LC50, A549, 48 hours exposure, SRB",77 nM
same,GI50,[6]; [24],3.3 nM
same,IC (TGI),[6]; [24],1.1 nM
same,CC50,"[6]; Homo sapiens, SK-MEL-28, 48 h, read-out: LC50",33 nM
same,CC50,"[19]; 48 h, read-out: LC50",33 nM
same,GI50,"[19]; MB231, 48 hours exposure, SRB",1.1 nM
same,IC (TGI),"[19]; MB231, 48 hours exposure, SRB, read-out: TGI",5.5 nM
same,GI50,[11]; [26],2.2 nM
same,IC (TGI),[11]; [26],4.4 nM
same,CC50,"[11]; Homo sapiens, DU-145, 48 h",9.9 nM
same,CC50,"[20]; 48 h, read-out: LC50",110 nM
same,GI50,"[20]; MCF, 48 hours exposure, SRB",2.2 nM
same,IC (TGI),"[20]; MCF, 48 hours exposure, SRB, read-out: TGI",9.9 nM
same,GI50,[15]; [27],11 nM
same,IC (TGI),[15]; [27],66 nM
same,CC50,[15]; [25],99 nM
same,CC50,"[21]; SW-620, 48 h, read-out: LC50",110 nM
same,IC (TGI),"[21]; SW-620, 48 hours exposure, SRB",55 nM
same,GI50,"[21]; SW-620, 48 hours exposure, SRB, read-out: GI50",22 nM
same,CC50,"[22]; A498, 48 h, read-out: LC50",11 nM
same,GI50,"[22]; A498, 48 hours exposure, SRB",3.3 nM
same,IC (TGI),"[22]; A498, 48 hours exposure, SRB",4.4 nM
